Assay [1] addresses T1, Threonyl-tRNA synthase (Phytophthora sojae) (UniProt G3FIN0).
T1 sequence (whole entry): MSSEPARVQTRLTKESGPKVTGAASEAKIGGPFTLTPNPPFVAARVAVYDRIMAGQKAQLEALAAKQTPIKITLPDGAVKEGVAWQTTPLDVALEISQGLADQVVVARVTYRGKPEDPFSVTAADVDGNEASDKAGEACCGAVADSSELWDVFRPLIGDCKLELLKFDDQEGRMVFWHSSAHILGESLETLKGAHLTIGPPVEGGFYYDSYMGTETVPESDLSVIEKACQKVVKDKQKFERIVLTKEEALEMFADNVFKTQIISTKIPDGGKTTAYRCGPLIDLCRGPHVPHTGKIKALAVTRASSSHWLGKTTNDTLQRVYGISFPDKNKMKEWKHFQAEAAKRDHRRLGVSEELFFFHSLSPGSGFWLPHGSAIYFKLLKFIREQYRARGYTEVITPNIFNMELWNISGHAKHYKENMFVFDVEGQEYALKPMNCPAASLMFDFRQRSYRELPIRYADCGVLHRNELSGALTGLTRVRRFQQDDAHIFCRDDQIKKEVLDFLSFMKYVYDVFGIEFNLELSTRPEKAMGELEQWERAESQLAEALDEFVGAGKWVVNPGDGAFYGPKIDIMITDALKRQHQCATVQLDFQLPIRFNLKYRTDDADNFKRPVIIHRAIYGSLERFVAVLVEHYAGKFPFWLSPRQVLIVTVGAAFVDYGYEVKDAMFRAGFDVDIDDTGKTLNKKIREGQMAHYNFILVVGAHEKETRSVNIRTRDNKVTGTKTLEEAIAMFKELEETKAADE
In words: Binding affinity to C-terminal His6-tagged Phytophthora sojae race 1 recombinant ThrRS expressed in Escherichia coli BL21 (Codonplus DE3) assessed as Stern-Volmer quenching constant at 27 degC by fluorescence spectroscopy.

For the next assay, the target named is T2, Threonyl-tRNA synthase (Phytophthora sojae, UniProt G3FIN0).
T2 sequence (G3FIN0 whole entry): T1 sequence (whole entry)
Nature of the assay: Inhibition of C-terminal His6-tagged Phytophthora sojae race 1 recombinant ThrRS expressed in Escherichia coli BL21 (Codonplus DE3) assessed as reduction in initial velocity at the step of threonine activation preincubated for 10 min with 4 uM enzyme before threonine addition measured after 30 min by HPLC analysis.

The target of assay [2] is T1, Threonyl-tRNA synthase (Phytophthora sojae). Nature of the assay: Binding affinity to C-terminal His6-tagged Phytophthora sojae race 1 recombinant ThrRS expressed in Escherichia coli BL21 (Codonplus DE3) assessed as static fluorescence quenching by FRET analysis.
Assay [3] has as its system Phytophthora sojae. Nature of the assay: Antifungal activity against Phytophthora sojae race 1 assessed as radial growth inhibition at 0.008 ug/ml incubated at 28 degC in the dark for 6 to 8 days in presence of 0.2 to 0.6 mM tyrosine. The class given is functional, organism-based.
Assay [4] has as its target T1, Threonyl-tRNA synthase (Phytophthora sojae). Nature of the assay: Binding affinity to C-terminal His6-tagged Phytophthora sojae race 1 recombinant ThrRS expressed in Escherichia coli BL21 (Codonplus DE3) at 20 to 200 uM at 27 to 47 degC after 30 min by fluorescence quenching assay.
In assay [5] the test system is Phytophthora sojae. Nature of the assay: Antifungal activity against Phytophthora sojae race 1 assessed as radial growth inhibition at 0.006 ug/ml incubated at 28 degC in the dark for 6 to 8 days in presence of 0.6 mM threonine. Format: functional, organism-based.
The subject of assay [6] is Phytophthora sojae. In words: Antifungal activity against Phytophthora sojae race 1 assessed as radial growth inhibition at 0.008 ug/ml incubated at 28 degC in the dark for 6 to 8 days in presence of 0.2 to 0.6 mM glutamine. Format: functional, organism-based.
Assay [7] deals with T1, Threonyl-tRNA synthase (Phytophthora sojae). In words: Binding affinity to C-terminal His6-tagged Phytophthora sojae race 1 recombinant ThrRS expressed in Escherichia coli BL21 (Codonplus DE3) assessed as increase in alpha helicity of the protein at protein to compound ratio of 1:1 by CD spectroscopy (reference value: 18.3%).
A further assay deals with Pythium. In words: Antifungal activity against Pythium species. The class given is functional, organism-based.
The target in assay [8] is T1, Threonyl-tRNA synthase (Phytophthora sojae). In words: Binding affinity to C-terminal His6-tagged Phytophthora sojae race 1 recombinant ThrRS expressed in Escherichia coli BL21 (Codonplus DE3) assessed as quenching rate constant at 47 degC by fluorescence spectroscopy.
Assay [9] deals with Phytophthora sojae. Nature of the assay: Antifungal activity against Phytophthora sojae race 1 assessed as radial growth inhibition at 0.008 ug/ml incubated at 28 degC in the dark for 6 to 8 days in presence of 0.2 to 0.6 mM L-aspargine. Format: functional, organism-based.
In assay [10] the target is T1, Threonyl-tRNA synthase (Phytophthora sojae). Nature of the assay: Binding affinity to C-terminal His6-tagged Phytophthora sojae race 1 recombinant ThrRS expressed in Escherichia coli BL21 (Codonplus DE3) assessed as positive entropy and enthalpy changes by themodynamic analysis.
For assay [11] the target is unchanged. In words: Binding affinity to C-terminal His6-tagged Phytophthora sojae race 1 recombinant ThrRS expressed in Escherichia coli BL21 (Codonplus DE3) assessed as Stern-Volmer quenching constant at 37 degC by fluorescence spectroscopy.
Assay [12] has the same target. In words: Binding affinity to C-terminal His6-tagged Phytophthora sojae race 1 recombinant ThrRS expressed in Escherichia coli BL21 (Codonplus DE3) assessed as Stern-Volmer quenching constant at 47 degC by fluorescence spectroscopy.
Assay [13] concerns Phytophthora sojae. In words: Antifungal activity against Phytophthora sojae race 1 assessed as radial growth inhibition at 0.008 ug/ml incubated at 28 degC in the dark for 6 to 8 days in presence of 0.2 to 0.6 mM alanine. Format: functional, organism-based.
Assay [14] has as its target T1, Threonyl-tRNA synthase (Phytophthora sojae). Nature of the assay: Binding affinity to C-terminal His6-tagged Phytophthora sojae race 1 recombinant ThrRS expressed in Escherichia coli BL21 (Codonplus DE3) assessed as decrease in beta sheet content of the protein at protein to compound ratio of 1:1 by CD spectroscopy (reference value: 25.6%). Set-up: scale not given: the % may be the effect or the level left.

Assay [15] shares this target. Nature of the assay: Binding affinity to C-terminal His6-tagged Phytophthora sojae race 1 recombinant ThrRS expressed in Escherichia coli BL21 (Codonplus DE3) assessed as quenching rate constant at 27 degC by fluorescence spectroscopy.
Assay [16] has the same target. Nature of the assay: Binding affinity to C-terminal His6-tagged Phytophthora sojae race 1 recombinant ThrRS expressed in Escherichia coli BL21 (Codonplus DE3) assessed as increase in alpha helicity of the protein at protein to compound ratio of 1:5 by CD spectroscopy (reference value: 18.3%).
Assay [17] has the same target. In words: Binding affinity to C-terminal His6-tagged Phytophthora sojae race 1 recombinant ThrRS expressed in Escherichia coli BL21 (Codonplus DE3) assessed as decrease in beta sheet content of the protein at protein to compound ratio of 1:5 by CD spectroscopy (reference value: 25.6%). Set-up: scale not given: the % may be the effect or the level left.
For assay [18] the target is unchanged. In words: Binding affinity to C-terminal His6-tagged Phytophthora sojae race 1 recombinant ThrRS expressed in Escherichia coli BL21 (Codonplus DE3) assessed as equilibrium binding constant by fluorescence spectroscopy.
Assay [19] shares this target. In words: Binding affinity to C-terminal His6-tagged Phytophthora sojae race 1 recombinant ThrRS expressed in Escherichia coli BL21 (Codonplus DE3) assessed as quenching rate constant at 37 degC by fluorescence spectroscopy.

pIC50, pKi: −log10 of the molar value. In brackets after ≈: the same amount, converted by molar mass. Activity calls are given as the source filed them. The rule behind the calls is not given here.

A word on the pIC50: it is the negative decadic logarithm of the IC50, by convention in mol/L. A word on the pKi: it is the Ki on a negative log10 scale, so that one unit is a factor of ten. As usually defined, the EC50 is the concentration that produces a half-maximal response.

As for `C[C@@H]1C[C@H](C)C[C@H](C)[C@@H](O)CC(=O)O[C@H]([C@@H]2CCC[C@H]2C(=O)O)C/C=C/C=C(/C#N)[C@H](O)[C@@H](C)C1` [BORRELIDIN], the KSV came out at 1.54 ×10⁴ /M in [1], 1.33 ×10⁴ /M in [11] and 1.23 ×10⁴ /M in [12]. Besides, at Threonyl-tRNA synthase, the pIC50 is 5.10. In addition, the pKi on Threonyl-tRNA synthase (read-out: Ki(app)) is 5.00. Besides, the outcome in assay [2], in assay [4] and in assay [10] was Active. Besides, the “growth inhibition (GI)” value with Phytophthora sojae [3], in the assay on Phytophthora sojae [6], in the assay with Phytophthora sojae [9] and in the assay with Phytophthora sojae [13] was “Active” in each case. Besides, the “growth inhibition (GI)” value in the assay with Phytophthora sojae [5] is “inactive”. The Activity was determined as 24.4% in assay [7], 22.4% in assay [14], 25.7% in assay [16] and 21.8% in assay [17]. The same compound returned an EC50 with Pythium of 0.01 mg/L (≈ 0.0204 µM). For the same compound, the Kq was found to be 1.23 ×10¹² L/mol/s in assay [8], 1.54 ×10¹² L/mol/s in [15] and 1.33 ×10¹² L/mol/s in assay [19]. Besides, in assay [18], the KA is 2.55 ×10⁵ /M.
